Earlier results as cited in patent US11297852B2, “Method for treatment or prevention of gill disease” (NUTRECO IP ASSETS B.V., priority 2015, dated 2022).
Like-named read-outs stand apart in the source and are kept apart here.

Key:
AGD [1] = settings: in feed at 25 mg/kg
AGD [2] = settings: oral administration two weeks prior to challenge
[3] = Atlantic salmon
amoebae = settings: in vitro bath treatment at 10 mg/l, used individually
P. perurans = settings: in feed
AGD [4] = settings: oral supplementation
[5] = 7 days after P. perurans challenge

Compound	amoebae numbers (amoebae)	percent of lamella with lesions compared to control fed fish (P. perurans; 14 and 21 days after challenge)	percent of lamella with lesions compared to control fed fish (P. perurans; [5])	other results
Oc1c(Cl)cc(Cl)cc1Sc1cc(Cl)cc(Cl)c1O [Bithionol]	–	–	–	AGD associated lesions (AGD [1]): delay and reduction in intensity
CCOC(=O)[C@@H](N)CS [LCEE, L-cysteine ethyl ester]	–	–	–	progression of AGD associated gill pathology (AGD [2]): significantly delayed the progression; mucus viscosity [3]: reduce mucus viscosity
CC[C@@H](C(=O)[C@@H](C)[C@@H](O)[C@H](C)CCc1ccc(C)c(O)c1C(=O)O)[C@H]1O[C@](CC)([C@H]2CC[C@](O)(CC)[C@H](C)O2)C[C@@H]1C [Lasalocid acid]	significantly reduced amoebae numbers	no difference	reduced the percent of lamella with lesions	–
CO[C@@H]1[C@@H](OC)[C@H](C)[C@@](O)(CC(=O)O)O[C@H]1[C@H](C)[C@H]1O[C@@]2(CC[C@@](C)([C@H]3CC[C@@](C)([C@@H]4O[C@@H]([C@H]5O[C@](C)(O)[C@H](C)C[C@@H]5C)C[C@@H]4O[C@@H]4C[C@H](OC)[C@@H](OC)[C@H](C)O4)O3)O2)C[C@H](O)[C@H]1C [Maduramycin]	significantly reduced amoebae numbers	no difference	reduced the percent of lamella with lesions	–
CC[C@@H](C(=O)[C@@H](C)[C@@H](O)[C@H](C)[C@@H]1O[C@@H]([C@@H](CC)C(=O)O)CC[C@@H]1C)[C@H]1O[C@]2(C=C[C@@H](O)[C@]3(CC[C@@](C)([C@H]4CC[C@](O)(CC)[C@H](C)O4)O3)O2)[C@H](C)C[C@@H]1C [Salinomycin]	significantly reduced amoebae numbers	no difference	reduced the percent of lamella with lesions	–
c1ccc([C@H]2CN3CCSC3=N2)cc1 [levamisole]	–	–	–	impact on mortality levels (AGD [4]): no significant impact
glucans	–	–	–	impact on mortality levels (AGD [4]): no significant impact
